In patent US11504371B2, “Quinazolines compound, preparation method therefor and application thereof” (Beijing Normal University, priority 2017, dated 2022):
“Also recorded” adds a separate entry of the source. Like-named read-outs stand apart in the source and are kept apart here.

Columns and labels:
[1] = system: human hepatoma cell line (HepG2); test: MTT assay, tumor cell proliferation inhibition, HepG2; format: cell-based; conditions: 72 h, read-out: Tumor inhibition rate (IC50)
Description: (§1) Cell lines to be tested: human hepatoma cell line (HepG2), human lung cancer cell line (A549), human prostate cancer cell line (DU145), human breast cancer cell line (MCF-7), human neuroblastoma cell line (SH-SY5Y), human gastric mucosal cell line (Ges-1) and human embryonic lung fibroblast cell line (CCC-HPF-1) (the cells to be tested were purchased from the Cancer Hospital of Chinese Academy of Medical Sciences).
(§2) The cells in logarithmic growth phase were treated to prepare a single cell suspension, with the cell density adjusted, which was seeded in a 96-well cell culture plate. About 2×10^3 cells were contained in 100 μL per well, and cultured in a cell incubator at 37° C., 5% CO2, and saturated humidity for 24 h. The used medium was aspirated and abandoned, and then 100 μL of the target compound in different concentrations (0.1 μM-100 μM) were added for drug treatment. Five duplicate wells were prepared for each concentration. The background blank well, negative control well and positive control well were also prepared. All the wells were placed in a cell culture incubator at 37° C., 5% CO2, saturated humidity for another 72 h. Then, each well was added with 10 μL of MTT solution (5 mg/mL) and incubated for another 4 h. After that, each well was added with 100 μL of 10% SDS-0.1% NH4Cl (10% SDS purchased from Beijing Mengyimei Biotechnology Co., Ltd.) solution, and incubated at 37° C. for 10 h in the dark. Then, the absorbance OD was measured at 570 nm using a microplate reader at a reference wavelength of 650 nm. Cell proliferation inhibition was calculated according to the following formula: % inhibition=(ODcontrol−ODtreat)(ODcontrol−ODblank)×100. […] Each group was performed at least three times in parallel.

[2] = system: human neuroblastoma cell line (SH-SY5Y); test: MTT assay, tumor cell proliferation inhibition, SH-SY5Y; format: cell-based; conditions: SH-SY5Y, 72 h, read-out: Tumor inhibition rate (IC50)
Description: as §1, §2

[3] = system: human lung cancer cell line (A549); test: MTT assay, tumor cell proliferation inhibition, A549; format: cell-based; conditions: A549, MTT, 72 h, read-out: Tumor inhibition rate (IC50)
Description: as §1, §2

[4] = system: human breast cancer cell line (MCF-7); test: MTT assay, tumor cell proliferation inhibition, MCF-7; format: cell-based; conditions: MCF-7, MTT, 72 h, read-out: Tumor inhibition rate (IC50)
Description: as §1, §2

[5] = system: human prostate cancer cell line (DU145); test: MTT assay, tumor cell proliferation inhibition, DU145; format: cell-based; conditions: for IC50: DU145, MTT, 72 h, read-out: Tumor inhibition rate (IC50)
Description: as §1, §2

DU145 cancer cells = test: Nude mice bearing DU145 cancer cells; format: in vivo; conditions: for tumor growth: FIG. 3
Description: (§3) In the present invention, the antitumor activity was evaluated by intraperitoneal injection to nude mice bearing different tumors, for compounds 3 (N-(4-((4-nitrophenyl)methoxy)phenyl)-6,7-(benzo-9-crown-3)-4-quinazolinamine) and 23 (compounds No. are shown in Table 1) (N-(3-((4-trifluoromethylphenyl)methoxy)phenyl)-6,7-(benzo-12-crown-4)-4-quinazolinamine) of formula (I).
Firstly, a tumor-bearing nude mouse model was established. 0.2-1 mL of cell suspension was inoculated subcutaneously into the left lower limb of nude mice, and the drug was administered when the tumor volume reached about 100 mm^3. Then, grouping and administration were performed; the nude mice (5 mice in each group) were randomly divided into several groups, such as ultra-pure water control group (blank), positive drug control group, and different dosage treatment groups. […] The nude mice were weighted every other day during the administration. Tumor volumes were measured and calculated. Then tumor growth curve, tumor inhibition curve (see FIGS. 1 and 3) and weight change curve (see FIGS. 2 and 4) were drawn. […]. Among those, docetaxel suffers from high cumulative neurotoxic toxicity and drug resistance although it has the best effect. Comparing to docetaxel, compound 23 has a much lower toxicity and drug resistance, and thus has a great development prospect. […]

[6] = system: tumor cell strains HepG2, A549, MCF-7, DU145 and SH-SY5Y; test: MTT assay, summary over the five tumor cell lines; format: cell-based, human; conditions: HepG2, A549, MCF-7, DU145, SH-SY5Y
Description: as §1
The cells in logarithmic growth phase were treated to prepare a single cell suspension, with the cell density adjusted, which was seeded in a 96-well cell culture plate. About 2×10^3 cells were contained in 100 μL per well, and cultured in a cell incubator at 37° C., 5% CO2, and saturated humidity for 24 h. The used medium was aspirated and abandoned, and then 100 μL of the target compound in different concentrations (0.1 μM-100 μM) were added for drug treatment. Five duplicate wells were prepared for each concentration. The background blank well, negative control well and positive control well were also prepared. All the wells were placed in a cell culture incubator at 37° C., 5% CO2, saturated humidity for another 72 h. Then, each well was added with 10 μL of MTT solution (5 mg/mL) and incubated for another 4 h. After that, each well was added with 100 μL of 10% SDS-0.1% NH4Cl (10% SDS purchased from Beijing Mengyimei Biotechnology Co., Ltd.) solution, and incubated at 37° C. for 10 h in the dark. Then, the absorbance OD was measured at 570 nm using a microplate reader at a reference wavelength of 650 nm. Cell proliferation inhibition was calculated according to the following formula: % inhibition=(ODcontrol−ODtreat)(ODcontrol−ODblank)×100. IC50 value, i.e., 50% proliferation inhibition concentration, was calculated by SPSS 16.0 software. Each group was performed at least three times in parallel.
The inhibitory activities of 35 target compounds against tumor cell strains HepG2, A549, MCF-7, DU145 and SH-SY5Y were tested by MTT assay (Table 1). Some compounds with optimal antitumor activity were selected.

A549 cancer cells = test: Nude mice bearing A549 cancer cells; format: in vivo; conditions: mouse, in vivo
Description: as §3
Firstly, a tumor-bearing nude mouse model was established. 0.2-1 mL of cell suspension was inoculated subcutaneously into the left lower limb of nude mice, and the drug was administered when the tumor volume reached about 100 mm^3. Then, grouping and administration were performed; the nude mice (5 mice in each group) were randomly divided into several groups, such as ultra-pure water control group (blank), positive drug control group, and different dosage treatment groups. The nude mice in each group were administered continuously for 40 days. The nude mice were weighted every other day during the administration. Tumor volumes were measured and calculated. Then tumor growth curve, tumor inhibition curve (see FIGS. 1 and 3) and weight change curve (see FIGS. 2 and 4) were drawn. […]. Among those, docetaxel suffers from high cumulative neurotoxic toxicity and drug resistance although it has the best effect. Comparing to docetaxel, compound 23 has a much lower toxicity and drug resistance, and thus has a great development prospect. […]

HepG2 cancer cells = test: Nude mice bearing HepG2 cancer cells; conditions: for weight loss of nude mice (FIG. 6): 40 mg/Kg, single agent; for tumor growth (tumor volume, FIG. 5): nude mice bearing HepG2, single agent
Description: Firstly, a tumor-bearing nude mouse model was established. […] Then, grouping and administration were performed; the nude mice (5 mice in each group) were randomly divided into several groups, such as ultra-pure water control group (blank), positive drug control group, and different dosage treatment groups. The nude mice in each group were administered continuously for 40 days. The nude mice were weighted every other day during the administration. Tumor volumes were measured and calculated.

Row | SMILES | IC50 [1] [µM] | IC50 [2] [µM] | IC50 [3] [µM] | IC50 [4] [µM] | IC50 [5] [µM] | also measured
1 | O=[N+]([O-])c1ccc(COc2ccccc2Nc2ncnc3cc4c(cc23)OCCOCCO4)cc1 [Compound 1, N-(2-((4-nitrophenyl)methoxy)phenyl)-6,7-(benzo-9-crown-3)-4-quinazolinamine] |  |  |  |  |  | IC50 ([1]; Homo sapiens): 50.2 µM; IC50 ([2]; Homo sapiens): > 100 µM; IC50 ([3]; Homo sapiens): 28.4 µM; IC50 ([4]; Homo sapiens, MCF7): > 100 µM; IC50 ([5]; Homo sapiens, DU-145): 85.6 µM; melting point: 192 to 193 °C
2 | FC(F)(F)c1ccc(COc2cccc(Nc3ncnc4cc5c(cc34)OCCOCCOCCO5)c2)cc1 [Compound 23, N-(3-((4-trifluoromethylphenyl)methoxy)phenyl)-6,7-(benzo-12-crown-4)-4-quinazolinamine] |  |  |  |  |  | IC50 ([1]; Homo sapiens): 34 µM; IC50 ([2]; Homo sapiens): 20 µM; IC50 ([3]; Homo sapiens): 24.9 µM; IC50 ([4]; Homo sapiens, MCF7): 17.6 µM; IC50 ([5]; Homo sapiens, DU-145): 2.76 µM; inhibitory effect on DU145 (in words) ([5]; MTT, summary of Table 1): strong specific inhibitory effect; tumor growth (DU145 cancer cells; 80 mg/Kg): no longer grown almost; body weight compared with blank control (DU145 cancer cells; 80 mg/Kg, after treating for 50 days): even heavier than that of the blank control group; tumor growth (DU145 cancer cells; 160 mg/Kg): no longer grown almost; also recorded: completely inhibited; toxicity (DU145 cancer cells; 160 mg/kg, FIG. 4): no significant toxicity was observed; toxicity / body weight of nude mice (FIG. 4) (DU145 cancer cells; nude mice bearing DU145): very low; antitumor effect (tumor volume, FIG. 3) (DU145 cancer cells; nude mice bearing DU145, intraperitoneal injection, three doses): significant antitumor effect; also recorded: high inhibitory effect
3 | c1ccc(COc2cccc(Nc3ncnc4cc5c(cc34)OCCOCCOCCOCCO5)c2)cc1 [Compound 28, N-(3-((phenyl)methoxy)phenyl)-6,7-(benzo-15-crown-5)-4-quinazolinamine] | 55.5 | 39.3 | 43.9 | > 100 | > 100 | 
4 | N#Cc1cc(Nc2ncnc3cc4c(cc23)OCCOCCO4)ccc1OCc1cccc(F)c1 [Compound 36, 2-(3-Fluoro-benzyloxy)-5-(7,8,10,11-tetrahydro-6,9,12-trioxa-1,3-diaza-cyclonona[b]naphthalen-4-ylamino)-benzonitrile] |  |  |  |  |  | IC50 ([1]; Homo sapiens): > 100 µM; IC50 ([2]; Homo sapiens): > 100 µM; IC50 ([3]; Homo sapiens): 3.52 µM; IC50 ([4]; Homo sapiens, MCF7): > 100 µM; IC50 ([5]; Homo sapiens, DU-145): 0.31 µM; melting point: 220 to 222 °C
5 | COc1cc2ncnc(Nc3ccc(F)c(Cl)c3)c2cc1OCCCN1CCOCC1 [Gefitinib, reference compound] |  |  |  |  |  | toxicity / body weight of nude mice (FIG. 2) (A549 cancer cells): increased
6 | CNC(=O)c1cc(Oc2ccc(NC(=O)Nc3ccc(Cl)c(C(F)(F)F)c3)c(F)c2)ccn1 [regorafenib] |  |  |  |  |  | weight loss of nude mice (FIG. 6) (HepG2 cancer cells): weight loss of nude mice is similar; tumor growth (tumor volume, FIG. 5) (HepG2 cancer cells): can slow down the tumor growth with increasing drug dose
7 | CNC(=O)c1cc(Oc2ccc(NC(=O)Nc3ccc(Cl)c(C(F)(F)F)c3)cc2)ccn1 [sorafenib] |  |  |  |  |  | weight loss of nude mice (FIG. 6) (HepG2 cancer cells): weight loss of nude mice is relatively slow; tumor growth (tumor volume, FIG. 5) (HepG2 cancer cells): can slow down the tumor growth with increasing drug dose

More lines, main results first:

Row | IC50 [1] [µM] | IC50 [2] [µM] | IC50 [3] [µM] | IC50 [4] [µM] | IC50 [5] [µM] | SMILES | also measured
8 | 19 | 20 | > 100 | > 100 | > 100 | Fc1ccc(COc2cccc(Nc3ncnc4cc5c(cc34)OCCOCCOCCOCCO5)c2)cc1 [Compound 25, N-(3-((p-fluorophenyl)methoxy)phenyl)-6,7-(benzo-15-crown-5)-4-quinazolinamine] | 
9 | 55.5 | 39.3 | 43.9 | > 100 | > 100 | Fc1ccc(COc2ccc(Nc3ncnc4cc5c(cc34)OCCOCCOCCOCCO5)cc2)cc1 [Compound 26, N-(4-((p-fluorophenyl)methoxy)phenyl)-6,7-(benzo-15-crown-5)-4-quinazolinamine] | 
10 | 29.2 | 24 | 48.5 | > 100 | > 100 | c1ccc(COc2ccccc2Nc2ncnc3cc4c(cc23)OCCOCCOCCOCCO4)cc1 [Compound 27, N-(2-((phenyl)methoxy)phenyl)-6,7-(benzo-15-crown-5)-4-quinazolinamine] | 
11 | 11.9 | 5.25 | 29.5 | 12 | 8.8 | c1ccc(COc2ccc(Nc3ncnc4cc5c(cc34)OCCOCCOCCOCCO5)cc2)cc1 [Compound 29, N-(4-((phenyl)methoxy)phenyl)-6,7-(benzo-15-crown-5)-4-quinazolinamine] | inhibitory effect on proliferation of the five tumor cells (in words) [6]: good inhibitory effect on proliferation of at least three of the five tumor cells
12 | 48.1 | > 100 | > 100 | > 100 | > 100 | O=[N+]([O-])c1ccc(COc2ccccc2Nc2ncnc3cc4c(cc23)OCCOCCOCCOCCO4)cc1 [Compound 30, N-(2-((4-nitrophenyl)methoxy)phenyl)-6,7-(benzo-15-crown-5)-4-quinazolinamine] | 
13 | > 100 | > 100 | > 100 | > 100 | > 100 | O=[N+]([O-])c1ccc(COc2ccc(Nc3ncnc4cc5c(cc34)OCCOCCOCCOCCO5)cc2)cc1 [Compound 32, N-(4-((4-nitrophenyl)methoxy)phenyl)-6,7-(benzo-15-crown-5)-4-quinazolinamine] | 
14 | > 100 | > 100 | 30.7 | 28.5 | > 100 | FC(F)(F)c1ccc(COc2ccccc2Nc2ncnc3cc4c(cc23)OCCOCCOCCOCCO4)cc1 [Compound 33, N-(2-((4-trifluoromethylphenyl)methoxy)phenyl)-6,7-(benzo-15-crown-5)-4-quinazolinamine] | 
